Measured values taken from US11845735B2, “Method for synthesizing (RS)-Warfarin” (priority 2021, dated 2023).

Key:
[1] = test system: extrinsic and common coagulation pathways; test: prothrombin time (PT) test in rats after oral feeding; assay type: in vivo; details: male rats; for International Normalized Ratio / Prothrombin Time: 5 mg/kg fed, blood collected after 24 hours, citrated plasma
Method: In this example, the anticoagulation effect of an exemplary (RS)-Warfarin was evaluated by an exemplary prothrombin time (PT) test. PT test may refer to an exemplary method carried out for monitoring oral anticoagulant therapy. PT test may measure the period of time it takes for a clot to form in a blood sample. In particular, PT test may measure the activity of exemplary coagulation factors involved in one or more exemplary extrinsic and common coagulation pathways. In one or more exemplary embodiments, prothrombin time may increase in response to inhibition of vitamin K-dependent procoagulant clotting factors (i.e., exemplary factors VII and X and prothrombin).
(§1) In an exemplary implementation, PT test may be accomplished in an animal model and may be compared to an exemplary commercial sample of Warfarin. In an exemplary implementation, 24 male rats were randomly separated into four groups, six rats in each group. Group I received distilled water (Control Group), Group II received an exemplary commercial Warfarin with an exemplary dose of 5 mg commercial Warfarin per weight of each rat (5 mg/kg), Group III received an exemplary synthesized (RS)-Warfarin with an exemplary dose of 5 mg (RS)-Warfarin per weight of each rat (5 mg/kg (Dose 1)), and Group IV received synthesized (RS)-Warfarin with an exemplary dose of 10 mg (RS)-Warfarin per weight of each rat (10 mg/kg (Dose 2)).
In an exemplary implementation, PT test was performed by feeding exemplary commercial Warfarin and Dose 1 of exemplary synthesized (RS)-Warfarin to Group II and Group III of rats, respectively. After 24 hours, exemplary blood samples were collected from two rats that were randomly selected from each of Group II and Group III. About 1.8 ml of each blood sample was added to exemplary tubes containing an exemplary anticoagulant, sodium citrate dihydrate. After centrifugation of each citrated blood sample at 2000 gr for 15 minutes, plasma was separated to be used for PT analysis. In an exemplary implementation, PT test may be performed by adding a mixture of thromboplastin and calcium to citrated plasma. Thromboplastin is a protein-phospholipid extract of tissue that may contain necessary phospholipids and tissue factors for promoting activation of factor X by factor VII. At the beginning of an exemplary anticoagulant therapy (e.g., Warfarin therapy), prothrombin time may reflect an exemplary depression of factor VII, because factor VII may have the shortest half-life among exemplary vitamin K-dependent factors. During an exemplary maintenance therapy, PT test may be sensitive to the decrease in prothrombin and factor X levels. PTs and international normalized ratios (INRs) were measured for Group II and Group III of rats.

[2] = clinical chemistry tests for toxicity (urea, creatinine, SGOT, SGPT, LDH) in rats; assay type: in vivo; details: 5 mg/kg (Dose 1) and 10 mg/kg (Dose 2) vs commercial Warfarin 5 mg/kg, blood after 24 hours
Method: as §1
In this example, toxicity of exemplary (RS)-Warfarin was assessed using one or more exemplary clinical chemistry tests, such as urea test, creatinine test, SGOT (glutamic oxaloacetic transaminase) test, SGPT (glutamate-pyruvate transaminase) test, and LDH (lactate dehydrogenase) test. In an exemplary implementation, Group II, Group III, and Group IV of rats were fed with exemplary commercial Warfarin, Dose 1 of exemplary synthesized (RS)-Warfarin, and Dose 2 of exemplary synthesized (RS)-Warfarin, respectively. […]

| SMILES | anticoagulant effect in comparison to commercial Warfarin (PTs and INRs) ([1]; 5 mg/kg each, 24 hours) | International Normalized Ratio [1] | Prothrombin Time [1] [s] | urea, creatinine, SGOT, SGPT and LDH test results compared to rats fed with commercial Warfarin (FIG. 8) [2] |
| --- | --- | --- | --- | --- |
| CC(=O)CC(c1ccccc1)c1c(O)c2ccccc2oc1=O (racemic) [Exemplary Synthesized (RS)-Warfarin, 4-hydroxy-3-(3-oxo-1-phenylbutyl)-2H-1-benzopyran-2-one] | significantly increased anticoagulant effect | 3.4 | 24.4 | may not significantly differ |
| CC(=O)CC(c1ccccc1)c1c(O)c2ccccc2oc1=O (stereo not drawn) [Exemplary Commercial Warfarin, Warfarin] |  | 2.19 | 18.6 |  |
